Results published in ChEMBL document CHEMBL6121048 (J Med Chem, 2025).
Active and inactive are the calls of the source. No cut-off for these calls is given here.

Columns and labels:
[1] = molecular target: Ionotropic glutamate receptor NMDA 1/2C (Homo sapiens) (UniProt Q05586+Q14957); experiment: Agonist activity at GluN1/GluN2C (unknown origin) expressed in xenopus laevis oocytes by measuring maximum response by two-electrode voltage-clamp method relative to glycine; assay type: cell-based
[2] = molecular target: T1, Glutamate NMDA receptor; Grin1/Grin2a (Rattus norvegicus) (UniProt P35439+Q00959); experiment: Partial agonist activity at recombinant rat GluN1/GluN2A NMDA receptor expressed in xenopus laevis oocytes by measuring maximum response by two-electrode voltage-clamp method relative to glycine; assay type: cell-based; details: filed as partial agonist
[3] = molecular target: T2, Glutamate NMDA receptor; Grin1/Grin2b (Rattus norvegicus) (UniProt P35439+Q00960); experiment: Agonist activity at recombinant rat GluN1/GluN2B NMDA receptor expressed in xenopus laevis oocytes at 30 uM by two-electrode voltage-clamp method relative to control; assay type: cell-based
[4] = molecular target: T3, Ionotropic glutamate receptor NMDA 1/2D (Rattus norvegicus, UniProt P35439+Q62645); experiment: Partial agonist activity at recombinant rat GluN1/GluN2D NMDA receptor expressed in xenopus laevis oocytes in presence of L-glutamate by two-electrode voltage-clamp method; assay type: cell-based
[5] = molecular target: T4, Glutamate NMDA receptor; Grin1/Grin2c (Rattus norvegicus, UniProt P35439+Q00961); experiment: Agonist activity at recombinant rat GluN1/GluN2C NMDA receptor expressed in xenopus laevis oocytes in presence of L-glutamate by two-electrode voltage-clamp method; assay type: cell-based
[6] = molecular target: T5, Glutamate NMDA receptor; Grin1/Grin2a (Rattus norvegicus, UniProt P35439+Q00959); experiment: Partial agonist activity at recombinant rat GluN1/GluN2A NMDA receptor expressed in xenopus laevis oocytes in presence of L-glutamate by two-electrode voltage-clamp method; assay type: cell-based
[7] = molecular target: T6, Ionotropic glutamate receptor NMDA 1/2D (Rattus norvegicus) (UniProt P35439+Q62645); experiment: Partial agonist activity at recombinant rat GluN1/GluN2D NMDA receptor expressed in xenopus laevis oocytes by measuring maximum response by two-electrode voltage-clamp method relative to glycine; assay type: cell-based
[8] = molecular target: T7, Glutamate NMDA receptor; Grin1/Grin2c (Rattus norvegicus) (UniProt P35439+Q00961); experiment: Agonist activity at recombinant rat GluN1/GluN2C NMDA receptor expressed in xenopus laevis oocytes by measuring maximum response by two-electrode voltage-clamp method relative to glycine; assay type: cell-based; details: filed as agonist
[9] = Efflux ratio of apparent permeability across basolateral to apical over apical to basolateral side in dog MDR1-deficient MDCK cells expressing human MDR1 at 3 uM by LC-MS/MS analysis; assay type: ADME, cell-based, Canis lupus familiaris
[10] = Apparent permeability across apical to basolateral side in dog MDR1-deficient MDCK cells expressing human MDR1 at 3 uM by LC-MS/MS analysis; assay type: ADME, cell-based, Canis lupus familiaris
[11] = Apparent permeability across basolateral to apical side in dog MDR1-deficient MDCK cells expressing human MDR1 at 3 uM by LC-MS/MS analysis; assay type: ADME, cell-based, Canis lupus familiaris
[12] = molecular target: T2, Glutamate NMDA receptor; Grin1/Grin2b (Rattus norvegicus); experiment: Inhibition of recombinant rat GluN1/GluN2B NMDA receptor expressed in xenopus laevis oocytes in presence of glycine and L-glutamate by measuring maximum response by two-electrode voltage-clamp method relative to control; assay type: cell-based
[13] = molecular target: T7, Glutamate NMDA receptor; Grin1/Grin2c (Rattus norvegicus); experiment: Inhibition of recombinant rat GluN1/GluN2C NMDA receptor expressed in xenopus laevis oocytes in presence of glycine and L-glutamate by measuring maximum response by two-electrode voltage-clamp method relative to control; assay type: cell-based
[14] = molecular target: T5, Glutamate NMDA receptor; Grin1/Grin2a; experiment: Inhibition of recombinant rat GluN1/GluN2A NMDA receptor expressed in xenopus laevis oocytes in presence of glycine and L-glutamate by two-electrode voltage-clamp method; assay type: cell-based
[15] = molecular target: T3, Ionotropic glutamate receptor NMDA 1/2D; experiment: Inhibition of recombinant rat GluN1/GluN2D NMDA receptor expressed in xenopus laevis oocytes in presence of glycine and L-glutamate by two-electrode voltage-clamp method; assay type: cell-based
[16] = molecular target: T6, Ionotropic glutamate receptor NMDA 1/2D (Rattus norvegicus); experiment: Inhibition of recombinant rat GluN1/GluN2D NMDA receptor expressed in xenopus laevis oocytes at 30 uM in presence of glycine and L-glutamate by measuring maximum response by two-electrode voltage-clamp method relative to control; assay type: cell-based
[17] = molecular target: T1, Glutamate NMDA receptor; Grin1/Grin2a (Rattus norvegicus); experiment: Inhibition of recombinant rat GluN1/GluN2A NMDA receptor expressed in xenopus laevis oocytes in presence of glycine and L-glutamate by measuring maximum response by two-electrode voltage-clamp method relative to control; assay type: cell-based
[18] = molecular target: Glutamate NMDA receptor; Grin1/Grin2b (Rattus norvegicus, UniProt P35439+Q00960); experiment: Inhibition of recombinant rat GluN1/GluN2B NMDA receptor expressed in xenopus laevis oocytes in presence of glycine and L-glutamate by two-electrode voltage-clamp method; assay type: cell-based
[19] = molecular target: T4, Glutamate NMDA receptor; Grin1/Grin2c; experiment: Inhibition of recombinant rat GluN1/GluN2C NMDA receptor expressed in xenopus laevis oocytes in presence of glycine and L-glutamate by two-electrode voltage-clamp method; assay type: cell-based
[20] = molecular target: T2, Glutamate NMDA receptor; Grin1/Grin2b (Rattus norvegicus); experiment: Agonist activity at recombinant rat GluN1/GluN2B NMDA receptor expressed in xenopus laevis oocytes at 1 uM by two-electrode voltage-clamp method relative to control; assay type: cell-based
[21] = molecular target: T2, Glutamate NMDA receptor; Grin1/Grin2b (Rattus norvegicus); experiment: Agonist activity at recombinant rat GluN1/GluN2B NMDA receptor expressed in xenopus laevis oocytes by measuring maximum response by two-electrode voltage-clamp method relative to glycine; assay type: cell-based; details: filed as agonist
Rattus norvegicus [22] = organism: Rattus norvegicus; experiment: Agonist activity at recombinant rat GluN1 Y692L mutant receptor expressed in xenopus laevis oocytes in presence of L-glutamate by two-electrode voltage-clamp method; assay type: cell-based
Rattus norvegicus [23] = organism: Rattus norvegicus; experiment: Agonist activity at recombinant rat GluN1 V689I mutant receptor expressed in xenopus laevis oocytes assessed as fold reduction by two-electrode voltage-clamp method; assay type: cell-based; details: filed as agonist
[24] = Metabolic stability in human liver microsomes assessed as half life at 1 uM incubated for 5 mins in presence of NADPH by LC-MS/MS analysis; assay type: ADME, Microsome
[25] = molecular target: T2, Glutamate NMDA receptor; Grin1/Grin2b (Rattus norvegicus); experiment: Agonist activity at recombinant rat GluN1/GluN2B NMDA receptor expressed in xenopus laevis oocytes at 3 uM by two-electrode voltage-clamp method relative to control; assay type: cell-based
Rattus norvegicus [26] = organism: Rattus norvegicus; experiment: Agonist activity at recombinant rat GluN1 F754L mutant receptor expressed in xenopus laevis oocytes in presence of L-glutamate by two-electrode voltage-clamp method; assay type: cell-based
[27] = molecular target: T2, Glutamate NMDA receptor; Grin1/Grin2b (Rattus norvegicus); experiment: Agonist activity at recombinant rat GluN1/GluN2B NMDA receptor expressed in xenopus laevis oocytes at 10 uM by two-electrode voltage-clamp method relative to control; assay type: cell-based
Rattus norvegicus [28] = organism: Rattus norvegicus; experiment: Selectivity ratio of EC50 for partial agonist activity at recombinant rat GluN1/GluN2D NMDA receptor expressed in xenopus laevis oocytes to EC50 for agonist activity at recombinant rat GluN1/GluN2C NMDA receptor expressed in xenopus laevis oocytes; assay type: cell-based
Rattus norvegicus [29] = organism: Rattus norvegicus; experiment: Selectivity ratio of EC50 for partial agonist activity at recombinant rat GluN1/GluN2A NMDA receptor expressed in xenopus laevis oocytes to EC50 for agonist activity at recombinant rat GluN1/GluN2C NMDA receptor expressed in xenopus laevis oocytes; assay type: cell-based
[30] = Selectivity ratio of EC50 for wild type GluN1/2C receptor to EC50 for GluN1 S688A/2C mutant receptor expressed in xenopus laevis oocytes; assay type: cell-based
[31] = Selectivity ratio of EC50 for wild type GluN1/GluN2C receptor to EC50 for GluN1 V689I/2C receptor expressed in xenopus laevis oocytes; assay type: cell-based

Rmax [2]	Activity [3]	EC50 [4]	EC50 [5]	EC50 [6]	Rmax ([7]; filed as partial agonist)	Rmax [8]	Papp [10]	Papp [11]	Rmax [7]	SMILES	also measured
–	–	–	–	–	–	–	–	–	–	N[C@H](CNC(=O)c1cc2c(Cl)ccc(Cl)c2[nH]1)C(=O)O	Rmax [1]: 38%
61%	< 5%	5580 nM	1880 nM	3730 nM	42%	390%	–	–	–	N[C@H](CNC(=O)c1ccc(-c2cccc(F)c2)s1)C(=O)O	–
–	–	–	–	–	–	–	0.77 ×10⁻⁶ cm/s	5.7 ×10⁻⁶ cm/s	–	COC(=O)c1ccccc1-c1c2ccc(=N)cc-2oc2cc(N)ccc12.Cl [RHODAMINE123]	Ratio [9]: 7.5
–	–	–	–	–	–	–	–	–	–	CCc1ccccc1-c1ccc(C(=O)NC[C@@H](N)C(=O)O)o1	Rmax [12]: 2%; Rmax [13]: 65%; IC50 [14]: 540 nM; IC50 [15]: 1300 nM; Rmax [16]: 7%; Rmax [17]: 77%; IC50 [18]: 150 nM; IC50 [19]: 1100 nM
75%	–	120 nM	25 nM	51 nM	–	267%	–	–	30%	Cc1cc(C(=O)NC[C@@H](N)C(=O)O)sc1-c1ccccc1Br	Activity [20]: < 5%
102%	–	–	–	–	93%	116%	–	–	–	N[C@H](CO)C(=O)O	–
90%	< 5%	1290 nM	660 nM	1280 nM	–	293%	–	–	24%	COc1ccccc1-c1ccc(C(=O)NC[C@@H](N)C(=O)O)s1	–
100%	–	–	–	–	100%	100%	–	–	–	NCC(=O)O	Rmax [21]: 100%
77%	–	81 nM	41 nM	57 nM	–	234%	2 ×10⁻⁶ cm/s	1.4 ×10⁻⁶ cm/s	32%	CCc1ccccc1-c1ccc(C(=O)NC[C@@H](N)C(=O)O)s1	Activity (Rattus norvegicus [22]): inactive; fold change (FC) (Rattus norvegicus [23]): 1.3; t1/2 [24]: > 2 h; Activity [25]: < 5%; Activity (Rattus norvegicus [26]): inactive
67%	–	180 nM	110 nM	290 nM	–	179%	–	–	29%	COc1cccc(F)c1-c1ccc(C(=O)NC[C@@H](N)C(=O)O)s1	Activity [27]: < 5%
59%	–	303 nM	133 nM	102 nM	–	116%	–	–	34%	N[C@H](CNC(=O)c1ccc(-c2cccc3ccccc23)s1)C(=O)O	Activity [25]: < 5%
–	–	–	–	–	–	–	107.4 ×10⁻⁶ cm/s	89.6 ×10⁻⁶ cm/s	–	CC(C)OC(=O)[C@H](N)CNC(=O)c1ccc(-c2ccccc2Br)s1	Ratio [9]: 0.83; t1/2 [24]: 0.367 h
83%	< 5%	1450 nM	740 nM	1070 nM	–	306%	–	–	23%	COc1ccc(F)cc1-c1ccc(C(=O)NC[C@@H](N)C(=O)O)s1	–
58%	–	16 nM	3 nM	18 nM	–	430%	0.9 ×10⁻⁶ cm/s	7.4 ×10⁻⁶ cm/s	30%	N[C@H](CNC(=O)c1cc(Br)c(-c2ccccc2Br)s1)C(=O)O	Ratio [9]: 8.2; Ratio EC50 (Rattus norvegicus [28]): 5.5; t1/2 [24]: > 2 h; Ratio EC50 (Rattus norvegicus [29]): 6.2; Activity [20]: < 5%
54%	–	240 nM	34 nM	210 nM	44%	864%	1.6 ×10⁻⁶ cm/s	2.2 ×10⁻⁶ cm/s	–	N[C@H](CNC(=O)c1cc(Br)c(-c2ccccc2F)s1)C(=O)O	Ratio [9]: 1.4; Activity (Rattus norvegicus [22]; filed as agonist): Active; Compound Shows Reduced Efficacy Compared To Wild-Type Glun1/2C; fold change (FC) (Rattus norvegicus [23]): 2; Ratio EC50 (Rattus norvegicus [28]): 7.1; Ratio EC50 [30]: 1.9; t1/2 [24]: > 2 h; Ratio EC50 (Rattus norvegicus [29]): 6.2; Ratio EC50 [31]: 2.6; Activity (Rattus norvegicus [26]; filed as agonist): Active; Compound Shows Reduced Efficacy Compared To Wild-Type Glun1/2C; Activity [27]: < 5%
69%	< 5%	3270 nM	640 nM	2280 nM	43%	326%	–	–	–	N[C@H](CNC(=O)c1ccc(-c2ccccc2)s1)C(=O)O	Rmax [12]: 3%; Rmax [13]: 395%; IC50 [14]: 1900 nM; Rmax [16]: 20%; Rmax [17]: 137%; IC50 [18]: 2100 nM; IC50 [19]: 3900 nM
63%	< 5%	980 nM	230 nM	880 nM	45%	410%	–	–	–	N[C@H](CNC(=O)c1ccc(-c2ccccc2F)s1)C(=O)O	–
62%	< 5%	3520 nM	930 nM	1990 nM	41%	321%	–	–	–	N[C@H](CNC(=O)c1ccc(-c2cccc(F)c2F)s1)C(=O)O	–
80%	< 5%	72 nM	38 nM	74 nM	–	156%	0.53 ×10⁻⁶ cm/s	0.88 ×10⁻⁶ cm/s	28%	N[C@H](CNC(=O)c1ccc(-c2ccccc2Br)s1)C(=O)O	Ratio [9]: 1.6; Activity (Rattus norvegicus [22]): inactive; fold change (FC) (Rattus norvegicus [23]): 1.5; Ratio EC50 [30]: 1.4; t1/2 [24]: > 2 h; Ratio EC50 [31]: 2.9; Activity (Rattus norvegicus [26]): inactive
–	–	–	–	–	–	–	0.81 ×10⁻⁶ cm/s	7.4 ×10⁻⁶ cm/s	–	CCc1ccccc1-c1cccc2[nH]c(C(=O)NC[C@@H](N)C(=O)O)cc12	Ratio [9]: 9.2; t1/2 [24]: > 2 h

SMILES	Rmax [2]	Activity [3]	EC50 [4]	EC50 [5]	EC50 [6]	Rmax ([7]; filed as partial agonist)	Rmax [8]	Papp [10]	Papp [11]	Rmax [7]	also measured
N[C@H](CNC(=O)c1ccc(-c2ccccc2C(F)(F)F)s1)C(=O)O	62%	< 5%	200 nM	88 nM	150 nM	–	158%	–	–	24%	–
